Patent publication US11124499B2, “Pharmaceutical composition derived from Tecoma plant and a method for treating cancer” (National Guard Health Affairs, priority 2018, dated 2021)

How the values were obtained:
HL-60 = test: MTT cytotoxicity, HL-60; assay type: cell-based; conditions: HL-60, human acute promyelocytic leukemia, 12 h exposure, mean±SD of three trials
Experimental: (§1) The cytotoxicity of Tecomaphorbide was tested against various cultured cell lines. Cells were exposed to various concentrations of Tecomaphorbide (ranging from 0.0 to 4.0 μM) for 12 h. Subsequently, the exposed cells were incubated with MTT reagent for 4 h and the developed color was analyzed spectrophotometrically. IC50 was determined from the sigmoidal curve of blotting percentage of cell viability versus the logarithm of concentration in μM using Graphpad Prism 6 program. The determined values summarized in Table 2 are the mean±SD value obtained from three independent trials.

MV4-11 = test: MTT cytotoxicity, MV4-11; assay type: cell-based; conditions: MV4-11, human B myelomonocytic leukemia, 12 h exposure, mean±SD of three trials
Experimental: as §1

U937 = test: MTT cytotoxicity, U937; assay type: cell-based; conditions: U-937, U937, human histiocytic lymphoma, 12 h exposure, mean±SD of three trials
Experimental: as §1

PC-3 = test: MTT cytotoxicity, PC-3; assay type: cell-based; conditions: PC-3, human prostate adenocarcinoma, 12 h exposure, mean±SD of three trials
Experimental: as §1

MCF-7 = test: MTT cytotoxicity, MCF-7; assay type: cell-based; conditions: MCF7, MCF-7, human breast adenocarcinoma, 12 h exposure, mean±SD of three trials
Experimental: as §1

MOLM-13 = test: MTT cytotoxicity, MOLM-13; assay type: cell-based; conditions: MOLM-13, human acute monocytic leukemia, 12 h exposure, mean±SD of three trials
Experimental: as §1

[1] = system: T-Cell Acute lymphocytic leukemia cell line (Jurkat); test: Apoptosis in Jurkat cells (FIG. 2); assay type: cell-based, human
Excerpt: (§2) FIG. 2 is a bar graph summarizing the effect of compound Tecomaphorbide on apoptosis in human acute leukemia T-cells (Jurkat cells) and normal primary T-cells.

K562 = test: MTT cytotoxicity, K562; assay type: cell-based; conditions: K562, human chronic myelogenous leukemia, 12 h exposure, mean±SD of three trials
Experimental: as §1

Caco-2 = test: MTT cytotoxicity, Caco-2; assay type: cell-based; conditions: Caco-2, human colorectal adenocarcinoma, 12 h exposure, mean±SD of three trials
Experimental: as §1

normal primary T-cells = test: Apoptosis in normal primary T-cells (FIG. 2); assay type: cell-based, human
Excerpt: as §2

Jurkat = test: MTT cytotoxicity, Jurkat; assay type: cell-based; conditions: human acute T cell leukemia, 12 h exposure, mean±SD of three trials
Experimental: as §1

Compound `C=Cc1c(C=O)c2cc3nc(c4c5[nH]c(cc6nc(cc1[nH]2)C(C)=C6CC)c(C)c5C(=O)C4C(=O)OCC)C(CCC(=O)OC)C3C` (centres unmarked) [Tecomaphorbide] has an IC50 (HL-60) of 460 ± 110 nM, an IC50 (MV4-11) of 620 ± 140 nM and an IC50 (U937) of 1380 ± 320 nM. The IC50 (PC-3) was 1940 ± 350 nM, the IC50 (MCF-7) was 2660 ± 480 nM and the IC50 (MOLM-13) was 580 ± 170 nM. The effect on apoptosis [1] was “able to induce apoptosis”, the IC50 (K562) was 1530 ± 190 nM and the IC50 (Caco-2) was 2830 ± 620 nM. For the same compound, the effect on apoptosis (normal primary T-cells) was “minimal impact” and the IC50 (Jurkat) was 1210 ± 240 nM.
